Laboratory results: article PMC5218480 (PLoS ONE, 2017)

System: MV-4-11 cells
Assay: Gene expression microarray analysis (Affymetrix PrimeView) and GSEA
Type: cell-based, human
Set-up: RFU PODN (11730768_x_at) / Fold change /veh PODN (11730768_x_at) / RFU LINC00158 (11744669_a_at) / Fold change /veh LINC00158 (11744669_a_at) / RFU DUSP10 (11751237_a_at) / Fold change /veh DUSP10 (11751237_a_at) / RFU ID3 (11757404_x_at) / Fold change /veh ID3 (11757404_x_at) / RFU PLEKHG5 (11737974_s_at) / Fold change /veh PLEKHG5 (11737974_s_at) / RFU LRRC4B (11730491_at) / Fold change /veh LRRC4B (11730491_at) / RFU GIMAP4 (11747438_a_at) / Fold change /veh GIMAP4 (11747438_a_at) / RFU KRT8 (11758183_x_at) / Fold change /veh KRT8 (11758183_x_at) / RFU CNN1 (11734310_a_at) / Fold change /veh CNN1 (11734310_a_at) / RFU VPS37D (11726825_at) / Fold change /veh VPS37D (11726825_at) / RFU C10orf10 (11716522_x_at) / Fold change /veh C10orf10 (11716522_x_at) / RFU KIR2DL2 /// KIR2DL4 /// KIR2DL5A /// KIR2DL5B /// KIR2DS1 /// KIR2DS2 /// KIR2DS3 /// KIR2DS4 /// KIR3DL3 /// KIR3DL3 /// KIR3DS1 (11738374_at) / Fold change /veh KIR2DL2 /// KIR2DL4 /// KIR2DL5A /// KIR2DL5B /// KIR2DS1 /// KIR2DS2 /// KIR2DS3 /// KIR2DS4 /// KIR3DL3 /// KIR3DL3 /// KIR3DS1 (11738374_at) / RFU C1QL1 (11718748_at) / Fold change /veh C1QL1 (11718748_at) / RFU TMPRSS4 (11747572_a_at) / Fold change /veh TMPRSS4 (11747572_a_at) / RFU HAMP (11756126_x_at) / Fold change /veh HAMP (11756126_x_at) / RFU RNFT2 (11725882_a_at) / Fold change /veh RNFT2 (11725882_a_at) / RFU NR4A2 (11747474_a_at) / Fold change /veh NR4A2 (11747474_a_at) / RFU ABCC12 (11746883_a_at) / Fold change /veh ABCC12 (11746883_a_at) / RFU TMEM136 (11760407_x_at) / Fold change /veh TMEM136 (11760407_x_at) / RFU CLDN22 /// WWC2 (11732394_at) / Fold change /veh CLDN22 /// WWC2 (11732394_at) / RFU HLA-DPB1 (11760878_x_at) / Fold change /veh HLA-DPB1 (11760878_x_at) / RFU SPINT1 (11716480_a_at) / Fold change /veh SPINT1 (11716480_a_at) / RFU GAP43 (11754022_s_at) / Fold change /veh GAP43 (11754022_s_at) / RFU A4GNT (11735810_at) / Fold change /veh A4GNT (11735810_at) / RFU PRB3 (11715151_x_at) / Fold change /veh PRB3 (11715151_x_at) / RFU TUBB4B (11761932_at) / Fold change /veh TUBB4B (11761932_at) / RFU CAPN14 (11732068_a_at) / Fold change /veh CAPN14 (11732068_a_at) / RFU TMCC2 (11721928_a_at) / Fold change /veh TMCC2 (11721928_a_at) / RFU IRGQ (11745062_a_at) / Fold change /veh IRGQ (11745062_a_at) / RFU FAM174B (11720279_a_at) / Fold change /veh FAM174B (11720279_a_at) / RFU TMPRSS4 (11748680_a_at) / Fold change /veh TMPRSS4 (11748680_a_at) / RFU FAM212B (11763350_a_at) / Fold change /veh FAM212B (11763350_a_at) / RFU PLEKHG5 (11743358_a_at) / Fold change /veh PLEKHG5 (11743358_a_at) / RFU ZSCAN30 (11745921_a_at) / Fold change /veh ZSCAN30 (11745921_a_at) / RFU CMKLR1 (11741424_a_at) / Fold change /veh CMKLR1 (11741424_a_at) / RFU LOC101060620 /// MAPK8IP1 (11723275_at) / Fold change /veh LOC101060620 /// MAPK8IP1 (11723275_at) / RFU SPTSSB (11747773_x_at) / Fold change /veh SPTSSB (11747773_x_at) / RFU PRSS12 (11739890_at) / Fold change /veh PRSS12 (11739890_at) / RFU BIN1 (11741810_x_at) / Fold change /veh BIN1 (11741810_x_at) / RFU WNT11 (11732464_a_at) / Fold change /veh WNT11 (11732464_a_at) / RFU C10orf10 (11716521_a_at) / Fold change /veh C10orf10 (11716521_a_at) / RFU C5orf56 (11738089_at) / Fold change /veh C5orf56 (11738089_at) / RFU CYB561 (11721691_x_at) / Fold change /veh CYB561 (11721691_x_at) / RFU ANKRD19P (11752326_a_at) / Fold change /veh ANKRD19P (11752326_a_at) / RFU OR2T12 /// OR2T33 /// OR2T8 (11738714_s_at) / Fold change /veh OR2T12 /// OR2T33 /// OR2T8 (11738714_s_at) / RFU VCAN (11748164_a_at) / Fold change /veh VCAN (11748164_a_at) / RFU JSRP1 (11732532_at) / Fold change /veh JSRP1 (11732532_at) / RFU KRTAP10-11 (11738290_x_at) / Fold change /veh KRTAP10-11 (11738290_x_at) / RFU MYO3A (11730013_a_at) / Fold change /veh MYO3A (11730013_a_at) / RFU EBF3 (11725865_a_at) / Fold change /veh EBF3 (11725865_a_at) / RFU CAMK2N1 (11719241_x_at) / Fold change /veh CAMK2N1 (11719241_x_at) / RFU C5orf56 (11738088_a_at) / Fold change /veh C5orf56 (11738088_a_at) / RFU OLFML3 (11715873_a_at) / Fold change /veh OLFML3 (11715873_a_at) / RFU LOC100653217 /// NTM (11731650_a_at) / Fold change /veh LOC100653217 /// NTM (11731650_a_at) / RFU MAPK11 (11762145_a_at) / Fold change /veh MAPK11 (11762145_a_at) / RFU FIZ1 (11724087_x_at) / Fold change /veh FIZ1 (11724087_x_at) / RFU OASL (11726364_x_at) / Fold change /veh OASL (11726364_x_at) / RFU SOX15 (11748057_x_at) / Fold change /veh SOX15 (11748057_x_at) / RFU CD79A (11719716_a_at) / Fold change /veh CD79A (11719716_a_at) / RFU HIST1H1D (11736915_at) / Fold change /veh HIST1H1D (11736915_at) / RFU CASKIN2 (11723855_a_at) / Fold change /veh CASKIN2 (11723855_a_at) / RFU LOC730098 (11760151_x_at) / Fold change /veh LOC730098 (11760151_x_at) / RFU OR4N2 (11742367_at) / Fold change /veh OR4N2 (11742367_at) / RFU PRRT2 (11749266_a_at) / Fold change /veh PRRT2 (11749266_a_at) / RFU SNX32 (11753110_a_at) / Fold change /veh SNX32 (11753110_a_at) / RFU CDHR5 (11726645_a_at) / Fold change /veh CDHR5 (11726645_a_at) / RFU RCAN1 (11760418_a_at) / Fold change /veh RCAN1 (11760418_a_at) / RFU FAM167A (11723789_a_at) / Fold change /veh FAM167A (11723789_a_at) / RFU FAM26E (11764081_at) / Fold change /veh FAM26E (11764081_at) / RFU ISYNA1 (11749810_s_at) / Fold change /veh ISYNA1 (11749810_s_at) / RFU ACY1 (11761880_at) / Fold change /veh ACY1 (11761880_at) / RFU 11764098_at / Fold change /veh 11764098_at / RFU SAMD14 (11745864_x_at) / Fold change /veh SAMD14 (11745864_x_at) / RFU NPB (11741838_a_at) / Fold change /veh NPB (11741838_a_at) / RFU TMPRSS6 (11731388_a_at) / Fold change /veh TMPRSS6 (11731388_a_at) / RFU KRTAP10-2 (11738614_at) / Fold change /veh KRTAP10-2 (11738614_at) / RFU ARHGAP8 /// PRR5-ARHGAP8 (11727945_x_at) / Fold change /veh ARHGAP8 /// PRR5-ARHGAP8 (11727945_x_at) / RFU KRTAP5-7 /// NADSYN1 (11734609_at) / Fold change /veh KRTAP5-7 /// NADSYN1 (11734609_at) / RFU RASL12 (11751679_a_at) / Fold change /veh RASL12 (11751679_a_at) / RFU CDKN2B (11736163_a_at) / Fold change /veh CDKN2B (11736163_a_at) / RFU PRF1 (11729649_at) / Fold change /veh PRF1 (11729649_at) / RFU, ZNF638 /// ZNF638-IT1 / Fold change vs veh, ZNF638 /// ZNF638-IT1 / RFU, PANK3 / Fold change vs veh, PANK3 / RFU, SH3YL1 / Fold change vs veh, SH3YL1 / RFU, ZEB2 / Fold change vs veh, ZEB2 / RFU, NRIP1 / Fold change vs veh, NRIP1 / RFU, PTTG1IP / Fold change vs veh, PTTG1IP / RFU, CAPN2 / Fold change vs veh, CAPN2 / RFU, MED14 / Fold change vs veh, MED14 / RFU, SNORA58 / Fold change vs veh, SNORA58 / RFU, C1orf63 / Fold change vs veh, C1orf63 / RFU, LRRFIP1 / Fold change vs veh, LRRFIP1 / RFU, NDUFAF7 / Fold change vs veh, NDUFAF7 / RFU, SLC12A2 / Fold change vs veh, SLC12A2 / RFU, IBTK / Fold change vs veh, IBTK / RFU, ESF1 / Fold change vs veh, ESF1 / Fold change vs veh, TMEM50B / RFU, TAOK1 / Fold change vs veh, TAOK1 / RFU, ACBD3 / Fold change vs veh, ACBD3 / RFU, TMA16 / Fold change vs veh, TMA16 / RFU, RWDD3 / Fold change vs veh, RWDD3 / RFU, BCAT1 / Fold change vs veh, BCAT1 / RFU, EDEM3 / Fold change vs veh, EDEM3 / RFU, TMEM33 / Fold change vs veh, TMEM33 / RFU, WDR75 / Fold change vs veh, WDR75 / RFU, AHCTF1 / Fold change vs veh, AHCTF1 / RFU, TFRC / Fold change vs veh, TFRC / RFU, ZDHHC17 / Fold change vs veh, ZDHHC17 / RFU, NOM1 / Fold change vs veh, NOM1 / RFU, ARL8B / Fold change vs veh, ARL8B / RFU, ZBTB11 / Fold change vs veh, ZBTB11 / RFU, TAMM41 / Fold change vs veh, TAMM41 / RFU, KIAA1704 /// LOC100996395 / Fold change vs veh, KIAA1704 /// LOC100996395 / RFU, ING1 / Fold change vs veh, ING1 / RFU, TRMT61B / Fold change vs veh, TRMT61B / RFU, FUBP3 / Fold change vs veh, FUBP3 / RFU, TP53 / Fold change vs veh, TP53 / RFU, TNKS2 / Fold change vs veh, TNKS2 / RFU, ZFP14 / Fold change vs veh, ZFP14 / RFU, ACTR2 / Fold change vs veh, ACTR2 / RFU, PPP3R1 / Fold change vs veh, PPP3R1 / RFU, PIK3R1 / Fold change vs veh, PIK3R1 / RFU, HNRNPA1 / Fold change vs veh, HNRNPA1 / RFU, RNF170 / Fold change vs veh, RNF170 / RFU, ZNF28 / Fold change vs veh, ZNF28 / RFU, RNGTT / Fold change vs veh, RNGTT / RFU, OGT / Fold change vs veh, OGT / RFU, BRD1 / Fold change vs veh, BRD1 / RFU, MARS / Fold change vs veh, MARS / RFU, ZNF655 / Fold change vs veh, ZNF655 / RFU, FAHD1 / Fold change vs veh, FAHD1 / RFU, BDP1 / Fold change vs veh, BDP1 / RFU, LRRCC1 / Fold change vs veh, LRRCC1 / RFU, ARID1A / Fold change vs veh, ARID1A / RFU, ZNF146 / Fold change vs veh, ZNF146 / RFU, ZNF330 / Fold change vs veh, ZNF330 / RFU, GPN3 / Fold change vs veh, GPN3 / RFU, C9orf123 / Fold change vs veh, C9orf123 / RFU, N4BP2L2 / Fold change vs veh, N4BP2L2 / RFU, ARFIP1 / Fold change vs veh, ARFIP1 / RFU, FAM179B / Fold change vs veh, FAM179B / RFU, BCL10 / Fold change vs veh, BCL10 / RFU, UHRF1BP1L / Fold change vs veh, UHRF1BP1L / RFU, BET1 / Fold change vs veh, BET1 / RFU, CNOT2 / Fold change vs veh, CNOT2 / RFU, ZNF268 / Fold change vs veh, ZNF268 / Fold change vs veh, ZNF507 / RFU, DGCR2 / Fold change vs veh, DGCR2 / RFU, WDSUB1 / Fold change vs veh, WDSUB1 / Fold change vs veh, HSP90B1 /// MIR3652 / RFU, ADSS / Fold change vs veh, ADSS / RFU, GK / Fold change vs veh, GK / RFU, ZNF148 / Fold change vs veh, ZNF148 / RFU, TAF9 / Fold change vs veh, TAF9 / RFU, SLC1A5 / Fold change vs veh, SLC1A5 / RFU, SLMO2 / Fold change vs veh, SLMO2 / RFU, ABCC4 / Fold change vs veh, ABCC4 / RFU, LOC101060439 /// RAP1B / Fold change vs veh, LOC101060439 /// RAP1B / RFU, RFX7 / Fold change vs veh, RFX7 / RFU, GTPBP10 / Fold change vs veh, GTPBP10 / RFU, CNEP1R1 / Fold change vs veh, CNEP1R1 / RFU, BIVM-ERCC5 /// ERCC5 / Fold change vs veh, BIVM-ERCC5 /// ERCC5 / RFU, ILF3 / Fold change vs veh, ILF3 / RFU 11762660_at / Fold change /veh 11762660_at / RFU VCAN (11757783_s_at) / Fold change /veh VCAN (11757783_s_at) / RFU DDX43 (11728927_at) / Fold change /veh DDX43 (11728927_at) / RFU KRT8 (11758188_x_at) / Fold change /veh KRT8 (11758188_x_at) / RFU NKD1 (11759106_at) / Fold change /veh NKD1 (11759106_at) / RFU SRD5A1 (11742802_a_at) / Fold change /veh SRD5A1 (11742802_a_at) / RFU TPSAB1 /// TPSB2 (11721975_s_at) / Fold change /veh TPSAB1 /// TPSB2 (11721975_s_at) / RFU GSTM3 (11746129_a_at) / Fold change /veh GSTM3 (11746129_a_at) / RFU IL23R (11737362_x_at) / Fold change /veh IL23R (11737362_x_at) / RFU TMEM51 (11727254_a_at) / Fold change /veh TMEM51 (11727254_a_at) / RFU PIWIL2 (11732686_x_at) / Fold change /veh PIWIL2 (11732686_x_at) / RFU ORM1 (11744905_x_at) / Fold change /veh ORM1 (11744905_x_at) / RFU CCDC152 (11743942_at) / Fold change /veh CCDC152 (11743942_at) / RFU ECM1 (11717891_a_at) / Fold change /veh ECM1 (11717891_a_at) / RFU IL23R (11748794_a_at) / Fold change /veh IL23R (11748794_a_at) / RFU TNFAIP8L3 (11732012_x_at) / Fold change /veh TNFAIP8L3 (11732012_x_at) / RFU MBOAT4 (11741988_at) / Fold change /veh MBOAT4 (11741988_at) / RFU 11764193_at / Fold change /veh 11764193_at / RFU TMEM53 (11763286_at) / Fold change /veh TMEM53 (11763286_at) / RFU MAGEB2 (11727129_at) / Fold change /veh MAGEB2 (11727129_at) / RFU TMEM200A (11744735_a_at) / Fold change /veh TMEM200A (11744735_a_at) / RFU CCDC152 (11751479_a_at) / Fold change /veh CCDC152 (11751479_a_at) / RFU FAM211A (11726209_a_at) / Fold change /veh FAM211A (11726209_a_at) / RFU RGS16 (11746705_a_at) / Fold change /veh RGS16 (11746705_a_at) / RFU VCAN (11755009_s_at) / Fold change /veh VCAN (11755009_s_at) / RFU RHOB (11743442_s_at) / Fold change /veh RHOB (11743442_s_at) / RFU RGS16 (11720943_a_at) / Fold change /veh RGS16 (11720943_a_at) / RFU RGS16 (11720944_at) / Fold change /veh RGS16 (11720944_at) / RFU, VPS4B / Fold change vs veh, VPS4B / RFU, CREB1 / Fold change vs veh, CREB1 / RFU, DNAJC13 / Fold change vs veh, DNAJC13 / RFU, GNAQ / Fold change vs veh, GNAQ / RFU, CDK5R1 / Fold change vs veh, CDK5R1 / RFU, ZRANB3 / Fold change vs veh, ZRANB3 / RFU, CUL4A / Fold change vs veh, CUL4A / RFU, CCNY / Fold change vs veh, CCNY / RFU, UFL1 / Fold change vs veh, UFL1 / RFU, COG3 / Fold change vs veh, COG3 / RFU, DIAPH2 / Fold change vs veh, DIAPH2 / RFU, SKA2 / Fold change vs veh, SKA2 / RFU, AFF3 / Fold change vs veh, AFF3 / RFU, LMF1 / Fold change vs veh, LMF1 / RFU, IPO11 / Fold change vs veh, IPO11 / RFU, DFFB / Fold change vs veh, DFFB / RFU, FOXP1 / Fold change vs veh, FOXP1 / RFU, CARD8 / Fold change vs veh, CARD8 / RFU, STRN3 / Fold change vs veh, STRN3 / RFU, ADK / Fold change vs veh, ADK / RFU, RASSF2 / Fold change vs veh, RASSF2 / RFU, WIPF1 / Fold change vs veh, WIPF1 / RFU, LARP1B / Fold change vs veh, LARP1B / RFU, RASA1 / Fold change vs veh, RASA1 / RFU, RB1 / Fold change vs veh, RB1 / RFU, PPFIA1 / Fold change vs veh, PPFIA1 / RFU, MAT2A / Fold change vs veh, MAT2A / RFU, CCT5 / Fold change vs veh, CCT5 / RFU, WDR92 / Fold change vs veh, WDR92 / RFU, CUX1 / Fold change vs veh, CUX1 / RFU, TTC7A / Fold change vs veh, TTC7A / RFU, TMEM135 / Fold change vs veh, TMEM135 / RFU, DEPTOR / Fold change vs veh, DEPTOR / RFU, CPM / Fold change vs veh, CPM / RFU, DNAJB6 / Fold change vs veh, DNAJB6 / RFU, CACNA2D3 / Fold change vs veh, CACNA2D3 / RFU, DTX4 / Fold change vs veh, DTX4 / RFU, TFCP2 / Fold change vs veh, TFCP2 / RFU, GMCL1 /// GMCL1P1 / Fold change vs veh, GMCL1 /// GMCL1P1 / RFU, AEBP2 / Fold change vs veh, AEBP2 / RFU, SNHG1 /// SNORD22 /// SNORD25 /// SNORD26 /// SNORD27 /// SNORD28 /// SNORD29 /// SNORD31 / Fold change vs veh, SNHG1 /// SNORD22 /// SNORD25 /// SNORD26 /// SNORD27 /// SNORD28 /// SNORD29 /// SNORD31 / Fold change (Aza/veh), C12orf56 (ProbeSet 11735607_a_at) / Fold change (ACY-1035/veh), C12orf56 (ProbeSet 11735607_a_at) / Fold change (Aza/veh), FGFR1OP (ProbeSet 11751329_s_at) / Fold change (ACY-1035/veh), FGFR1OP (ProbeSet 11751329_s_at) / Fold change (Aza/veh), VPS36 (ProbeSet 11739960_a_at) / Fold change (ACY-1035/veh), VPS36 (ProbeSet 11739960_a_at) / RFU SYPL1 (11715823_x_at) / Fold change /veh SYPL1 (11715823_x_at) / RFU IGFBP7 (11715501_s_at) / Fold change /veh IGFBP7 (11715501_s_at) / RFU REEP3 (11722064_at) / Fold change /veh REEP3 (11722064_at) / RFU IGLL1 (11728026_x_at) / Fold change /veh IGLL1 (11728026_x_at): dose or concentration left out as unconfirmed
Details: MV-4-11 cells, 48 hours

## Nc1ncn([C@@H]2O[C@H](CO)[C@@H](O)[C@H]2O)c(=O)n1 [azacitidine]
  Fold change /veh IL23R (11748794_a_at): 1.48
